The target of assay [1] is T1, CDK12 (nuclear staining in CAL-120 cells) (Homo sapiens, UniProt Q9NYV4).
T1 construct: endogenous in cells; host or cells: CAL-120 human breast cancer cells (DSMZ ACC 459)
The assay is described as follows: CDK12 nuclear protein level: immunofluorescence/high content analysis (CAL-120). Format: cell-based. To be noted: for DC50: CAL-120 cells, 24 h, immunofluorescence, 50% reduction of nuclear CDK12 staining intensity, median, read-out: CDK12 degradation IF, DC50- [mol/l] (median); for (IC50 CDK12 high ATP) to (Degradation DC50 CDK12) ratio: ratio of IC50 CDK12 high ATP kinase assay to DC50 CDK12 degradation (IF, CAL-120). An outline of the steps:
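DC50 is the degrader concentration that halves nuclear CDK12 immunofluorescence relative to controls, measured by high-content imaging. CAL-120 cells were exposed to compound for 24 h at 37 °C before PFA fixation, and signal was normalized to DMSO and control wells.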

Assay [2] has as its system MDA-MB-231, human breast cancer cells. The assay is described as follows: Proliferation assay MDA-MB-231 (crystal violet, 4 days). It counts as cell-based. As to conditions: Homo sapiens, MDA-MB-231, 96 h, MDA-MB-231 cells, median, read-out: Prolif-MDA MB-231, IC50-[mol/l] (median). A digest of the protocol:
(§1)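 Growth was measured by crystal violet staining after cells had been treated with compounds (0.01-10 µmol/L, 0.1% DMSO) for 4 days, beginning 24 h after seeding. Values were normalized to a zero-point plate and to untreated controls, and IC50 values were derived by a four-parameter fit.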

The target in the next assay is CDK12/CycK (Homo sapiens, UniProt Q9NYV4). The assay is described as follows: CDK12/CycK high ATP kinase assay (TR-FRET, 2 mM ATP). Format: biochemical. As to conditions: 2 mM ATP (high ATP); median; read-out: CDK12/CyclinK, 2 mM ATP (high ATP), IC50-[mol/l] (median). An outline of the steps:
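Read-out is TR-FRET (Eu-anti-rabbit IgG, anti-phospho-c-Myc Ser62 antibody, streptavidin-XL665) after EDTA stop. Reaction ran 60 min at 22 °C using 1 µM biotin-peptide and high ATP (2 mM) with roughly 0.75 nM recombinant CDK12/CycK, after 15 min compound pre-binding; normalised emission ratios yield IC50.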

For assay [3], the system named is CAL-120, human breast adenocarcinoma cells. The assay is described as follows: Proliferation assay CAL-120 (crystal violet, 4 days). Format: cell-based. To be noted: Homo sapiens, CAL-120, 96 h, CAL-120 cells, median, read-out: Prolif-CAL-120, IC50-[mol/l] (median). An outline of the steps: as §1

Each structure is given as a SMILES string. pIC50: −log10 of the molar value.

T1 sequence (Q9NYV4 whole entry): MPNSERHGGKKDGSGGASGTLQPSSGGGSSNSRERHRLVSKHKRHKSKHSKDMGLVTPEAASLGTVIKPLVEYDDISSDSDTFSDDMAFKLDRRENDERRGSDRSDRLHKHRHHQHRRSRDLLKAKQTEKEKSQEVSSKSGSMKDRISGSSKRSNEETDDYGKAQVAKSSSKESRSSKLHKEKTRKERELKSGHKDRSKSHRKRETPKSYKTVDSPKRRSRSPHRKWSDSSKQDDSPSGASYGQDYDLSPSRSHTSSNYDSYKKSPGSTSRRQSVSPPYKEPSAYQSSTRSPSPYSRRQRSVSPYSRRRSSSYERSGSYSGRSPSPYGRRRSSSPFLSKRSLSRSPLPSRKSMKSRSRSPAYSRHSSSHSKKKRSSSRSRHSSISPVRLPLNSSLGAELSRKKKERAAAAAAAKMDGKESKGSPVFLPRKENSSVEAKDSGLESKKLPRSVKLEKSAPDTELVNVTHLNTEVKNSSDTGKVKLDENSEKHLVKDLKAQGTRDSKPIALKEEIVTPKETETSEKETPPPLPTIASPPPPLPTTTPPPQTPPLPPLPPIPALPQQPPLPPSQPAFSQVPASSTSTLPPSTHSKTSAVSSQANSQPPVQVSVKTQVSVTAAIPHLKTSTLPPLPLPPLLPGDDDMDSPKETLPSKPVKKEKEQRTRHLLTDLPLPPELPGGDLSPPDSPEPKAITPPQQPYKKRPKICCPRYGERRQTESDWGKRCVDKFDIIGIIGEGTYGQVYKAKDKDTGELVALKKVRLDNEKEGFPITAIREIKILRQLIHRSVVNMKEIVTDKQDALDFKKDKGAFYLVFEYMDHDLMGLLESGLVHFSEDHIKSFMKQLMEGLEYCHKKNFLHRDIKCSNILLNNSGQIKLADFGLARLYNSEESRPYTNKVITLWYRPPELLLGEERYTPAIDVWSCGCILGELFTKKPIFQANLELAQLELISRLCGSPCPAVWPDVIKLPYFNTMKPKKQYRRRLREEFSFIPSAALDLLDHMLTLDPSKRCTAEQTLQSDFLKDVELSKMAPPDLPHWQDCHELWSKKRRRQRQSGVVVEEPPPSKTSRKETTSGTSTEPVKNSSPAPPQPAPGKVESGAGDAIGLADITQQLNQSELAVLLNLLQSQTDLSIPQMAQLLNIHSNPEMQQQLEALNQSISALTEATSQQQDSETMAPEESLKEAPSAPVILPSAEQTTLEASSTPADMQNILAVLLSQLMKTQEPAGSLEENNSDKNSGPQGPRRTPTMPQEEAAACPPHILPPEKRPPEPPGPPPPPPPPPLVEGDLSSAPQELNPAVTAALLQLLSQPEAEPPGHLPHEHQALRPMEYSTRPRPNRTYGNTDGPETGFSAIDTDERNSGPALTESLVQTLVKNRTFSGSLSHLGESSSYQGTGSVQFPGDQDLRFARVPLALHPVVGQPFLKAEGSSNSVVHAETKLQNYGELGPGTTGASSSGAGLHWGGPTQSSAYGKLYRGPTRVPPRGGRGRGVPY
T1 sequence (O75909 whole entry partner): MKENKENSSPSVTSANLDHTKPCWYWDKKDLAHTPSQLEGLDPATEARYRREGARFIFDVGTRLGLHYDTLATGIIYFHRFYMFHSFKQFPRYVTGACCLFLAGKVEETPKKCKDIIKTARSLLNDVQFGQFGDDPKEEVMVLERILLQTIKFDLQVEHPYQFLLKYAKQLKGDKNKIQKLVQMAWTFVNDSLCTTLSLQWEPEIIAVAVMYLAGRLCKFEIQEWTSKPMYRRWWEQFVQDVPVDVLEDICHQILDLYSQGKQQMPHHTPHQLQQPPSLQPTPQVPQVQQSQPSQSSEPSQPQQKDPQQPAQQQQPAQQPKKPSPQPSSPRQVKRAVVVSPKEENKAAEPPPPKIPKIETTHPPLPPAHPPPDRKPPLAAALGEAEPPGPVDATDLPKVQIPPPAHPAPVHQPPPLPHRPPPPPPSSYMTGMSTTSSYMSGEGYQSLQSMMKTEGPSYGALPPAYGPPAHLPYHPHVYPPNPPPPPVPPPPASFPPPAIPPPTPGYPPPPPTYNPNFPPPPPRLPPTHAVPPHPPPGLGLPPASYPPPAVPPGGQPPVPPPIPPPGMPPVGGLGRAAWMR
CDK12/CycK, sequence (Q9NYV4 with tags, fused parts or gaps): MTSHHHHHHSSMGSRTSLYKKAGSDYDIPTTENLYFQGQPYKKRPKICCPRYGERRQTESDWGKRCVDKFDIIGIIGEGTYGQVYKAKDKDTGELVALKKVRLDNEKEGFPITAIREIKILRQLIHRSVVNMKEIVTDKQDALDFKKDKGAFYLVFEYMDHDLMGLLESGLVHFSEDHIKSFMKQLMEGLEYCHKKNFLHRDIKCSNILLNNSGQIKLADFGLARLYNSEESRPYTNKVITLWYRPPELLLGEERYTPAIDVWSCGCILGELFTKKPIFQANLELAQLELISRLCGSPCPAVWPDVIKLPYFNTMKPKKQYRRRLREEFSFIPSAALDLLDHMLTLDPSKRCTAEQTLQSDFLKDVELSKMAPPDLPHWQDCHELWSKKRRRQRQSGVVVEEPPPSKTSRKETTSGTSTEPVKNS
CDK12/CycK, sequence (O75909 1-300 partner limits assumed): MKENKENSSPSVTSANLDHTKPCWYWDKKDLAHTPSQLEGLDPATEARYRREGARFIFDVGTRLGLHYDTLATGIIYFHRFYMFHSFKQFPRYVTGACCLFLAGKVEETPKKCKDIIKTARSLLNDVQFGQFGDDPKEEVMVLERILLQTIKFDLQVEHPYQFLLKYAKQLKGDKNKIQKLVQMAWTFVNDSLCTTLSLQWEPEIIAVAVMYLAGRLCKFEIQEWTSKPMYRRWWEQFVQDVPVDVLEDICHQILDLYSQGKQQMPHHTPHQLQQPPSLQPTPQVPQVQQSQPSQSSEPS

With `COc1ccccc1-c1nnc(CNc2nc(N3CCN(C)CC3)nc3c(C4CC4(F)F)cnn23)[nH]1` (stereo not shown) [Example 430, 8-(2,2-difluorocyclopropyl)-N-{[5-(2-methoxyphenyl)-4H-1,2,4-triazol-3-yl]methyl}-2-(4-methylpiperazin-1-yl)pyrazolo[1,5-a][1,3,5]triazin-4-amine], the DC50 in assay [1] stood at 25.3 nM. The “(IC50 CDK12 high ATP) to (Degradation DC50 CDK12) ratio” value in assay [1] is over 789. Moreover, the values for the pIC50 (in assay [2]; on CDK12/CycK; in assay [3]) were 7.09, under 4.70 and 7.41, respectively.
The matching figures for `Cc1cnn2c(NCc3nc4c(F)c(F)ccc4[nH]3)nc(N(C)CC(C)(C)O)nc12` [Example 395, 1-[(4-{[(4,5-difluoro-1H-benzimidazol-2-yl)methyl]amino}-8-methylpyrazolo[1,5-a][1,3,5]triazin-2-yl)(methyl)amino]-2-methylpropan-2-ol]: 8 nM, 800, 7.47, 5.19 and 7.95.
The matching figures for `Brc1cnn2c(NCc3nc4ccccc4[nH]3)nc(OC3CCCCC3)nc12` [Example 406, N-[(1H-benzimidazol-2-yl)methyl]-8-bromo-2-(cyclohexyloxy)pyrazolo[1,5-a][1,3,5]triazin-4-amine]: 125 nM, over 160, 6.55, under 4.70 and 7.21.
The matching figures for `CN1CCN(c2nc(NCc3nc4c(F)c(F)ccc4[nH]3)n3ncc(C4CC4(F)F)c3n2)CC1` (stereo not shown) [Example 429, N-[(4,5-difluoro-1H-benzimidazol-2-yl)methyl]-8-(2,2-difluorocyclopropyl)-2-(4-methylpiperazin-1-yl)pyrazolo[1,5-a][1,3,5]triazin-4-amine]: 4.32 nM, over 4626, 7.49, under 4.70 and 8.05.
In the case of `COc1ccccc1-c1nnc(CNc2nc(N3CCOCC3)nc3c(Br)cnn23)[nH]1` [Example 61, 8-bromo-N-{[5-(2-methoxyphenyl)-4H-1,2,4-triazol-3-yl]methyl}-2-(morpholin-4-yl)pyrazolo[1,5-a][1,3,5]triazin-4-amine], the DC50 in assay [1] is 5.11 nM. In addition, the “(IC50 CDK12 high ATP) to (Degradation DC50 CDK12) ratio” value in assay [1] is recorded as over 3913. The pIC50 in assay [2] is 7.51; at CDK12/CycK it was under 4.70; in assay [3], 7.61.
The matching figures for `CC(C)(O)COc1nc(NCc2nc3ccccc3[nH]2)n2ncc(Br)c2n1` [Example 398, 1-[(4-{[(1H-benzimidazol-2-yl)methyl]amino}-8-bromopyrazolo[1,5-a][1,3,5]triazin-2-yl)oxy]-2-methylpropan-2-ol]: 66.2 nM, 221, 7.23, 4.84 and 7.17.
The matching figures for `Cc1cnn2c(NCc3nc4c(F)c(F)ccc4[nH]3)nc(N3CCOCC3)nc12` [Example 392, N-[(4,5-difluoro-1H-benzimidazol-2-yl)methyl]-8-methyl-2-(morpholin-4-yl)pyrazolo[1,5-a][1,3,5]triazin-4-amine]: 6.41 nM, 682, 7.95, 5.36 and 8.33.
The matching figures for `FC(F)(F)c1cnn2c(NCc3nnc(-c4ccccc4)[nH]3)nc(N3CCOCC3)nc12` [Example 427, 2-(morpholin-4-yl)-N-[(5-phenyl-4H-1,2,4-triazol-3-yl)methyl]-8-(trifluoromethyl)pyrazolo[1,5-a][1,3,5]triazin-4-amine]: 14.7 nM, 127, 6.95, 5.73 and 7.36.
Take `NCCOCCOCCNc1nc(NCc2nc3ccccc3[nH]2)n2ncc(Br)c2n1` [Example 412, N2-{2-[2-(2-aminoethoxy)ethoxy]ethyl}-N4-[(1H-benzimidazol-2-yl)methyl]-8-bromopyrazolo[1,5-a][1,3,5]triazine-2,4-diamine]: the DC50 in assay [1] came to 77.4 nM. For the same compound, in assay [1], the “(IC50 CDK12 high ATP) to (Degradation DC50 CDK12) ratio” value was over 74. In addition, the pIC50 in assay [2] is 5.72; on CDK12/CycK, under 5.24; in assay [3] it was 5.95.
The matching figures for `Cc1cnn2c(NCc3nc4c(F)c(F)ccc4[nH]3)nc(N3CC4CCC(C3)N4)nc12` [Example 400, 2-(3,8-diazabicyclo[3.2.1]octan-3-yl)-N-[(4,5-difluoro-1H-benzimidazol-2-yl)methyl]-8-methylpyrazolo[1,5-a][1,3,5]triazin-4-amine]: 6.15 nM, over 2712, 7.69, under 4.78 and 8.28.
The matching figures for `Cc1cnn2c(NCc3nc4ccccc4[nH]3)nc(N3CC4CCC(C3)N4)nc12` [Example 401, N-[(1H-benzimidazol-2-yl)methyl]-2-(3,8-diazabicyclo[3.2.1]octan-3-yl)-8-methylpyrazolo[1,5-a][1,3,5]triazin-4-amine]: 30.8 nM, over 649, 6.88, under 4.70 and 7.36.
The matching figures for `Fc1ccc2[nH]c(CNc3nc(N4CCN5CCC4CC5)nc4c(C(F)(F)F)cnn34)nc2c1F` [Example 407, 2-(1,4-diazabicyclo[3.2.2]nonan-4-yl)-N-[(4,5-difluoro-1H-benzimidazol-2-yl)methyl]-8-(trifluoromethyl)pyrazolo[1,5-a][1,3,5]triazin-4-amine]: 2.31 nM, 306, 8.64, 6.15 and 9.03.
Consider `N#Cc1cccc(-c2c[nH]c(CNc3nc(N4CCOCC4)nc4c(Br)cnn34)n2)c1` [Example 42, 3-[2-({[8-bromo-2-(morpholin-4-yl)pyrazolo[1,5-a][1,3,5]triazin-4-yl]amino}methyl)-1H-imidazol-4-yl]benzonitrile], for which the DC50 in assay [1] is 1.25 nM. The “(IC50 CDK12 high ATP) to (Degradation DC50 CDK12) ratio” value in assay [1] is 324. Besides, the results for the pIC50 (in assay [2]; at CDK12/CycK; in assay [3]) were 8.24, 6.39 and 8.75, respectively.
The matching figures for `Brc1cnn2c(NCc3nc4ccccc4[nH]3)nc(OC3CCNCC3)nc12` [Example 411, N-[(1H-benzimidazol-2-yl)methyl]-8-bromo-2-[(piperidin-4-yl)oxy]pyrazolo[1,5-a][1,3,5]triazin-4-amine]: 44.8 nM, over 446, 6.86, under 4.70 and 7.10.
The matching figures for `Clc1cc2nc(CNc3nc(N4CCOCC4)nc4c(-c5cscn5)cnn34)[nH]c2cc1Cl` [Example 424, N-[(5,6-dichloro-1H-benzimidazol-2-yl)methyl]-2-(morpholin-4-yl)-8-(1,3-thiazol-4-yl)pyrazolo [1,5-a][1,3,5]triazin-4-amine]: 38.1 nM, over 524, 7.13, under 4.70 and 7.39.
The matching figures for `O=C(O)C(F)(F)F.c1ccc2[nH]c(CNc3nc(N4CCOCC4)nc4c(-c5cncs5)cnn34)nc2c1` [Example 441, trifluoroacetic acid-N-[(1H-benzimidazol-2-yl)methyl]-2-(morpholin-4-yl)-8-(1,3-thiazol-5-yl)pyrazolo[1,5-a][1,3,5]triazin-4-amine (1/1)]: 6.18 nM, 676, 7.55, 5.38 and 8.11.
In the case of `Fc1ccc2[nH]c(CNc3nc(N4CCOCC4)nc4c(-c5ccnnc5)cnn34)nc2c1F` [Example 417, N-[(4,5-difluoro-1H-benzimidazol-2-yl)methyl]-2-(morpholin-4-yl)-8-(pyridazin-4-yl)pyrazolo[1,5-a][1,3,5]triazin-4-amine], the DC50 in assay [1] came out at 2.75 nM. In addition, the “(IC50 CDK12 high ATP) to (Degradation DC50 CDK12) ratio” value in assay [1] was over 2815. Besides, the pIC50 in assay [2] is 7.08; on CDK12/CycK, under 5.11; in assay [3], 8.04.

These data come from patent publication US20230117034A1, “PYRAZOLOTRIAZINES” (Bayer Aktiengesellschaft, priority 2019, published 2023).
